Data set [1] concerns hEAAT2 promoter. The data set is described as follows: hEAAT2 promoter luciferase assay of agents in PHFA (FIG. 10). The conditions noted are these: PHFA passage #3; 10 μM. The format is cell-based, human. The procedure:
(§1) FIG. 10. Effect of various agents on hEAAT2 promoter activity on primary human fetal astrocytes (PHFA). A: ceftriaxone; B: amoxicillin; C: chloramphenicol; D: thiamphenicol; E: vancomycin; F: glycine; G: glutamate; H: DMSO; I: dibutyryl cAMP. PHFA (passage #3) were seeded at 1×10^5 cells/35-mm plate. Twenty-four h later cells were untreated (CON) or received the indicated compound at a final concentration of 10 μM. Forty-eight h later the cells were transfected with a FL pGL3/EAAT2 luciferase reporter construct (5 μg) plus a pSVβGalactosidase construct (1 μg) using the calcium phosphate precipitation method (Su et al. 2003, Proc. Natl. Acad. Sci. USA 100:1955-1960). After an additional 48 h, cell lysates were prepared and luciferase activity was determined using the Luciferase Assay System Kit (Promega, E1501) and luminescence determined using a luminometer (Turner Designs, TD20/20) (Su et al. 2003, Proc. Natl. Acad. Sci. USA 100:1955-1960). Data presented are the average of 3 independent plates±S.D. Qualitatively similar results were obtained in 2 additional experiments.
as §1, with “Identification of Agents that Modulate hEAAT2 Promoter Activity. FIGS. 10-12 show the effects” for “FIG. 10. Effect”, “in PHFA (FIG. 10), PHFA-Im (FIG. 11) and H4 glioma (FIG. 12) cells. In the studies shown in FIG. 10,” for “on primary human fetal astrocytes (PHFA). A: ceftriaxone; B: amoxicillin; C: chloramphenicol; D: thiamphenicol; E: vancomycin; F: glycine; G: glutamate; H: DMSO; I: dibutyryl cAMP.”

The subject of data set [2] is hEAAT2 promoter. The data set is described as follows: hEAAT2 promoter luciferase assay of agents in PHFA-Im (FIG. 11). The class given is cell-based, human. The conditions noted are these: 10 μM. The method, then: as §1, with “FIG. 11.” for “FIG. 10.”, “activity in immortalized” for “activity on”, “astrocytes (PHFA-Im).” for “astrocytes (PHFA).”, “cAMP. PHFA-Im is a human telomerase-immortalized clone of primary human fetal astrocytes. PHFA-Im cells” for “cAMP. PHFA (passage #3)”, “at 5×10^4” for “at 1×10^5”
as §1, with “The effects” for “FIG. 10. Effect”, “these same” for “various”, “also were examined in two other cell lines to confirm the generality of the findings. […] PHFA-Im is a cell line developed from a clonal isolate of a” for “on hEAAT2 promoter activity on”, “astrocyte immortalized by transformation with the reverse transcriptase subunit of human telomerase. PHFA-Im cells” for “astrocytes (PHFA). A: ceftriaxone; B: amoxicillin; C: chloramphenicol; D: thiamphenicol; E: vancomycin; F: glycine; G: glutamate; H: DMSO; I: dibutyryl cAMP. PHFA (passage #3)”, “5×10^4” for “1×10^5”

Data set [3] has as its system hEAAT2 promoter. Briefly: hEAAT2 promoter luciferase assay of agents in H4 glioma cells (FIG. 12). The format is cell-based, human. The following applies: H4 malignant glioma cells; 10 μM. The method, then:
as §1, with “12.” for “10.”, “in H4” for “on primary”, “malignant glioma cells.” for “fetal astrocytes (PHFA).”, “H4 is a rare clone of malignant glioma cells that support hEAAT2 promoter activity. H4 cells” for “PHFA (passage #3)”, “5×10^4” for “1×10^5”
as §1, with “H4, the third cell line examined, is a rare clone” for “FIG. 10. Effect”, “malignant glioma cells that support” for “various agents on”, “activity. In the studies shown in FIG. 12, H4 cells” for “activity on primary human fetal astrocytes (PHFA). A: ceftriaxone; B: amoxicillin; C: chloramphenicol; D: thiamphenicol; E: vancomycin; F: glycine; G: glutamate; H: DMSO; I: dibutyryl cAMP. PHFA (passage #3)”, “5×10^4” for “1×10^5”

The subject of data set [4] is rat astrocytes. The conditions noted are these: Zelenaia et al., 2000; cited from earlier work.

The structures appear in SMILES notation. Starred links: 1 amine or outer side, 2 acyl side, 3 side chain; linkers in the order of their positions; H or OH if unused. Positions of bridges follow the written chain, without caps; N, C: chain ends. Non-standard residues stand in square brackets, D forms with d. Residues, ends and D or L forms follow the SMILES beside them. Chains are numbered I, II in the order given. Actinocin(9to1) = Cc1c2oc3c(C)ccc(C(=O)[*:1])c3nc-2c(C(=O)[*:2])c(N)c1=O; NMeV = CN[C@H](C(=O)O)C(C)C; Sar = CNCC(=O)O

In the case of `O=C(N[C@H](CO)[C@H](O)c1ccc([N+](=O)[O-])cc1)C(Cl)Cl` [chloramphenicol], the hEAAT2 promoter activity result in data set [1], in data set [2] and in data set [3] was “potent stimulators” each time.

As for `CO/N=C(\C(=O)N[C@@H]1C(=O)N2C(C(=O)O)=C(CSc3nc(=O)c(=O)[nH]n3C)CS[C@H]12)c1csc(N)n1` [ceftriaxone], the hEAAT2 promoter activity result in data set [1], in data set [2] and in data set [3] was “potent stimulators” in each case.

As to `CS(=O)(=O)c1ccc([C@@H](O)[C@@H](CO)NC(=O)C(Cl)Cl)cc1` [thiamphenicol], the hEAAT2 promoter activity result in data set [1], in data set [2] and in data set [3] was “potent stimulators” throughout.

As to `Cc1c2oc3c(C)ccc(C(=O)N[C@@H]4C(=O)N[C@H](C(C)C)C(=O)N5CCC[C@H]5C(=O)N(C)CC(=O)N(C)[C@@H](C(C)C)C(=O)O[C@@H]4C)c3nc-2c(C(=O)N[C@@H]2C(=O)N[C@H](C(C)C)C(=O)N3CCC[C@H]3C(=O)N(C)CC(=O)N(C)[C@@H](C(C)C)C(=O)O[C@@H]2C)c(N)c1=O` [actinomycin D] (I: T[dV]P[Sar][NMeV] / II: T[dV]P[Sar][NMeV]; ester I:1-I:C, II:1-II:C; linker I:N-II:N via Actinocin(9to1)), the toxicity entry in data set [4] is “toxic”.

The record behind these values is patent publication US20060127980A1, “Human excitatory amino acid transporter-2 gene promoter and uses thereof” (priority 2003, published 2006).
